Data from patent US20250057845A1, “COMBINATION OF A TASK1/3 CHANNEL BLOCKER WITH A P2X3 RECEPTOR ANTAGONIST FOR THE TREATMENT OF SLEEP APNEA” (BAYER AKTIENGESELLSCHAFT, priority 2020, published 2025).

Tests used:
[1] = test system: upper airway collapsibility in anaesthetized, spontaneously breathing pigs; assay: pig model of obstructive sleep apnea (OSA): upper airway collapsibility under negative pressure; format: in vivo, German Landrace pigs
Excerpt: The therapeutic potential of the combination of a TASK1/3 channel blocker with a P2X3 receptor antagonist according to the present invention in sleep apnea can be assessed preclinically in a pig model of obstructive sleep apnea (OSA).
Using negative pressure, it is possible to induce collapse and thus obstruction of the upper respiratory tract in anaesthetized, spontaneously breathing pigs (Wirth K. J. et al., Sleep 36(5) (2013) pp. 699-708).
German Landrace pigs are used for the model. The pigs are anaesthetized and tracheotomized. Two tracheal cannulas are inserted into the trachea, one into the rostral part and the other into the caudal part of the trachea. Using a connection piece, the rostral cannula is connected to a tube to the negative pressure device and to the distal tracheal cannula. The distal tracheal cannula is additionally connected to a tube with an open end to atmosphere via a connection piece that served for free tracheal breathing, circumventing the upper airway. By appropriate opening and clamping of those tubes breathing can be switched from nasal breathing to breathing through the caudal tracheal cannula, circumventing the upper airway, and the (isolated) upper airway can be connected to the negative pressure device, causing airflow in the inspiratory direction.
At certain points in time, the collapsibility of the upper respiratory tract is tested by having the pig breathe via the caudal cannula and applying negative pressures of −50, −100 and −150 cm water head (cm H2O) to the upper respiratory tract. This causes the upper respiratory tract to collapse, which manifests itself in an interruption of the airflow and a pressure drop in the tube system. This test is conducted prior to the administration of the test substance and at certain intervals after the administration of the test substance. An appropriately effective test substance can prevent this collapse of the respiratory tract in the inspiratory phase.

[2] = free plasma concentrations of Gefapixant in the OSA pig model (FIG. 4); format: in vivo, German Landrace pigs; conditions: pigs, minimal effective dose of Gefapixant (iv bolus 0.3 mg/kg then infusion 0.1 mg/kg/h)
[3] = 0.3 μg intranasal given at 0 min, time 0 min
[4] = 0.3 μg intranasal given at 0 min, time 10 min
[5] = 0.3 μg intranasal given at 0 min, time 30 min
[6] = 0.3 μg intranasal given at 0 min, time 60 min
[7] = 0.3 μg intranasal given at 0 min, time 90 min
[8] = Gefapixant iv bolus 0.3 mg/kg then iv infusion 0.1 mg/kg/h for four hours, given at 0 min, time 0 min
[9] = Gefapixant iv bolus 0.3 mg/kg then iv infusion 0.1 mg/kg/h for four hours, given at 0 min, time 10 min
[10] = Gefapixant iv bolus 0.3 mg/kg then iv infusion 0.1 mg/kg/h for four hours, given at 0 min, time 30 min
[11] = Gefapixant iv bolus 0.3 mg/kg then iv infusion 0.1 mg/kg/h for four hours, given at 0 min, time 60 min
[12] = Gefapixant iv bolus 0.3 mg/kg then iv infusion 0.1 mg/kg/h for four hours, given at 0 min, time 120 min
[13] = Gefapixant iv bolus 0.3 mg/kg then iv infusion 0.1 mg/kg/h for four hours, given at 0 min, time 180 min
[14] = Gefapixant iv bolus 0.3 mg/kg then iv infusion 0.1 mg/kg/h for four hours, given at 0 min, time 240 min
[15] = Gefapixant iv bolus 0.3 mg/kg then iv infusion 0.1 mg/kg/h for four hours, given at 0 min, time 300 min

With `COc1ccc(Cl)c(C(=O)N2C3CCC2CN(Cc2c(-c4ccc(C(C)C)cc4)nc4ncccn24)C3)n1` [(3-chloro-6-methoxypyridin-2-yl)(3-{[2-(4-isopropylphenyl)imidazo[1,2-a]pyrimidin-3-yl]methyl}-3,8-diazabicyclo[3.2.1]oct-8-yl)methanone] the “effectiveness of the dose on upper airway collapsibility” value ([1]; 0.3 μg intranasal) was “non effective dose”, the “Percent pigs without collaps −50 cm H2O, %” value [1, 3] was 0% and the “Percent pigs without collaps −50 cm H2O, %” value [1, 4] was 33%. The “Percent pigs without collaps −50 cm H2O, %” value [1, 5] was 0%, the “Percent pigs without collaps −50 cm H2O, %” value [1, 6] was 0% and the “Percent pigs without collaps −50 cm H2O, %” value [1, 7] was 0%. The “Percent pigs without collaps −100 cm H2O, %” value [1, 3] was 0%, the “Percent pigs without collaps −100 cm H2O, %” value [1, 4] was 33% and the “Percent pigs without collaps −100 cm H2O, %” value [1, 5] was 0%. The “Percent pigs without collaps −100 cm H2O, %” value [1, 6] was 0%, the “Percent pigs without collaps −100 cm H2O, %” value [1, 7] was 0% and the “Percent pigs without collaps −150 cm H2O, %” value [1, 3] was 0%. The “Percent pigs without collaps −150 cm H2O, %” value [1, 4] was 0%, the “Percent pigs without collaps −150 cm H2O, %” value [1, 5] was 0% and the “Percent pigs without collaps −150 cm H2O, %” value [1, 6] was 0%. The “Percent pigs without collaps −150 cm H2O, %” value [1, 7] was 0%.

With `COc1cc(C(C)C)c(Oc2cnc(N)nc2N)cc1S(N)(=O)=O` [Gefapixant] the “Percent pigs without collaps −50 cm H2O, %” value [1, 8] was 0%, the “Percent pigs without collaps −50 cm H2O, %” value [1, 9] was 0% and the “Percent pigs without collaps −50 cm H2O, %” value [1, 10] was 100%. The “Percent pigs without collaps −50 cm H2O, %” value [1, 11] was 100%, the “Percent pigs without collaps −50 cm H2O, %” value [1, 12] was 0% and the “Percent pigs without collaps −50 cm H2O, %” value [1, 13] was 0%. For the same molecule, the “Percent pigs without collaps −50 cm H2O, %” value [1, 14] was 0%, the “Percent pigs without collaps −50 cm H2O, %” value [1, 15] was 0% and the “Percent pigs without collaps −100 cm H2O, %” value [1, 8] was 0%. The “Percent pigs without collaps −100 cm H2O, %” value [1, 9] was 0%, the “Percent pigs without collaps −100 cm H2O, %” value [1, 10] was 100% and the “Percent pigs without collaps −100 cm H2O, %” value [1, 11] was 0%. The “Percent pigs without collaps −100 cm H2O, %” value [1, 12] was 0%, the “Percent pigs without collaps −100 cm H2O, %” value [1, 13] was 0% and the “Percent pigs without collaps −100 cm H2O, %” value [1, 14] was 0%. For the same molecule, the “Percent pigs without collaps −100 cm H2O, %” value [1, 15] was 0%, the “Percent pigs without collaps −150 cm H2O, %” value [1, 8] was 0% and the “Percent pigs without collaps −150 cm H2O, %” value [1, 9] was 0%. The “Percent pigs without collaps −150 cm H2O, %” value [1, 10] was 100%, the “Percent pigs without collaps −150 cm H2O, %” value [1, 11] was 0% and the “Percent pigs without collaps −150 cm H2O, %” value [1, 12] was 0%. For the same molecule, the “Percent pigs without collaps −150 cm H2O, %” value [1, 13] was 0%, the “Percent pigs without collaps −150 cm H2O, %” value [1, 14] was 0% and the “Percent pigs without collaps −150 cm H2O, %” value [1, 15] was 0%. The “effectiveness of the dose on upper airway collapsibility” value ([1]; iv bolus 0.3 mg/kg then iv infusion 0.1 mg/kg/h for four hours) was “minimal effective dose”, the “only time point after intravenous application at which upper airway collapsibility was inhibited at all three negative pressures in all pigs” value ([1]; iv bolus 0.3 mg/kg then iv infusion 0.1 mg/kg/h for four hours, −50, −100 and −150 cm H2O) was 30 min and the free plasma concentrations [2] was “about 100 nM”.
